Test results reported in ChEMBL document CHEMBL3885881, “DrugMatrix”.

Species: Rattus norvegicus
Test: DrugMatrix - Regimen: Daily Repeat
Assay type: toxicity, organism-based, Sprague-Dawley
Set-up: regimen Daily Repeat, gender Male, age 6-8 weeks
Conditions: in vivo, po, route oral GAVAGE, […]; for ABSOLUTE BASOPHIL / BASOPHIL / NUCLEATED RED BLOOD CELLS / ABSOLUTE EOSINOPHIL / EOSINOPHIL / ERYTHROCYTE COUNT / HEMATOCRIT / HEMOGLOBIN / LEUKOCYTE COUNT / LYMPHOCYTE / MEAN CORPUSCULAR HEMOGLOBIN / MEAN CORPUSCULAR HEMOGLOBIN CONCENTRATION / MEAN CORPUSCULAR VOLUME / MONOCYTE / NEUTROPHIL / PLATELET COUNT / ABSOLUTE LYMPHOCYTE / ABSOLUTE MONOCYTE / ABSOLUTE SEGMENTED NEUTROPHIL: tissue Blood
[1] = 0 mg/kg, 72 h, dose level Control, time 3 day
[2] = 0 mg/kg, 120 h, dose level Control, time 5 day
[3] = 0 mg/kg, dose level Control, time 28 day
[4] = 0 mg/kg, tissue Plasma, dose level Control, time 28 day
[5] = 23 mg/kg, 72 h, dose level Low, time 3 day
[6] = 23 mg/kg, 72 h, tissue Plasma, dose level Low, time 3 day
[7] = 23 mg/kg, 120 h, dose level High, time 5 day
[8] = 23 mg/kg, 120 h, dose level Low, time 5 day
[9] = 23 mg/kg, 120 h, tissue Plasma, dose level High, time 5 day
[10] = 23 mg/kg, 120 h, tissue Plasma, dose level Low, time 5 day

CC1=C(CC(=O)O)c2cc(F)ccc2/C1=C\c1ccc([S+](C)[O-])cc1 (stereo not given)
ABSOLUTE BASOPHIL [1]: 0 CELLS/uL | BASOPHIL [1]: 0% | NUCLEATED RED BLOOD CELLS [1]: 0 /100WBC | ABSOLUTE BASOPHIL [2]: 0 CELLS/uL | ABSOLUTE EOSINOPHIL [2]: 0 CELLS/uL | BASOPHIL [3]: 0.42% | EOSINOPHIL [3]: 0.58% | ERYTHROCYTE COUNT [3]: 8.06 x10E6/uL | HEMATOCRIT [3]: 48.44% | HEMOGLOBIN [3]: 16.34 G/DL | LEUKOCYTE COUNT [3]: 13.04 x10E3/uL | LYMPHOCYTE [3]: 85.12% | MEAN CORPUSCULAR HEMOGLOBIN [3]: 20.26 pg | MEAN CORPUSCULAR HEMOGLOBIN CONCENTRATION [3]: 33.74 G/DL | MEAN CORPUSCULAR VOLUME [3]: 60.1 fL | MONOCYTE [3]: 1.44% | NEUTROPHIL [3]: 11.28% | PLATELET COUNT [3]: 1226 x10E3/uL | ALANINE AMINOTRANSFERASE [4]: 28.6 u/L | ALBUMIN [4]: 3.94 G/DL | ALKALINE PHOSPHATASE [4]: 254.6 u/L | ASPARTATE AMINOTRANSFERASE [4]: 67.8 u/L | BLOOD UREA NITROGEN [4]: 10.4 mg/dL | CHLORIDE [4]: 104.6 MEQ/L | CHOLESTEROL [4]: 57.6 mg/dL | CREATINE PHOSPHOKINASE [4]: 224.8 u/L | CREATININE [4]: 0.4 mg/dL | GLUCOSE [4]: 140.6 mg/dL | PHOSPHORUS [4]: 10.66 mg/dL | POTASSIUM [4]: 6.58 MEQ/L | SODIUM [4]: 148.6 MEQ/L | TOTAL BILIRUBIN [4]: 0.24 mg/dL | TOTAL PROTEIN [4]: 6.64 G/DL | ABSOLUTE BASOPHIL [5]: 0 CELLS/uL | ABSOLUTE EOSINOPHIL [5]: 0 CELLS/uL | ABSOLUTE LYMPHOCYTE [5]: 6660 CELLS/uL | ABSOLUTE MONOCYTE [5]: 202 CELLS/uL | ABSOLUTE SEGMENTED NEUTROPHIL [5]: 1671.33 CELLS/uL | BASOPHIL [5]: 0% | EOSINOPHIL [5]: 0% | ERYTHROCYTE COUNT [5]: 4.91 x10E6/uL | HEMATOCRIT [5]: 31.27% | HEMOGLOBIN [5]: 12.6 G/DL | LEUKOCYTE COUNT [5]: 8.53 x10E3/uL | LYMPHOCYTE [5]: 79.33% | MEAN CORPUSCULAR HEMOGLOBIN [5]: 25.63 pg | MEAN CORPUSCULAR HEMOGLOBIN CONCENTRATION [5]: 40.27 G/DL | MEAN CORPUSCULAR VOLUME [5]: 63.67 fL | MONOCYTE [5]: 2.33% | NEUTROPHIL [5]: 18.33% | NUCLEATED RED BLOOD CELLS [5]: 0 /100WBC | PLATELET COUNT [5]: 1080 x10E3/uL | ALANINE AMINOTRANSFERASE [6]: 65.67 u/L | ALBUMIN [6]: 3.97 G/DL | ALKALINE PHOSPHATASE [6]: 429 u/L | ASPARTATE AMINOTRANSFERASE [6]: 75.67 u/L | BLOOD UREA NITROGEN [6]: 14.33 mg/dL | CARBON DIOXIDE [6]: 38.33 mmol/L | CHLORIDE [6]: 99.33 MEQ/L | CHOLESTEROL [6]: 87 mg/dL | CREATINE PHOSPHOKINASE [6]: 223.33 u/L | CREATININE [6]: 0.18 mg/dL | GLUCOSE [6]: 181 mg/dL | LACTATE DEHYDROGENASE [6]: 60.67 u/L | LIPASE [6]: 16 u/L | PHOSPHORUS [6]: 9.23 mg/dL | POTASSIUM [6]: 4.45 MEQ/L | SODIUM [6]: 143.57 MEQ/L | TOTAL BILIRUBIN [6]: 0.13 mg/dL | TOTAL PROTEIN [6]: 5.8 G/DL | URIC ACID [6]: 0.47 mg/dL | BASOPHIL [7]: 0.28% | EOSINOPHIL [7]: 0.82% | ERYTHROCYTE COUNT [7]: 7.33 x10E6/uL | HEMATOCRIT [7]: 47.1% | HEMOGLOBIN [7]: 14.9 G/DL | LEUKOCYTE COUNT [7]: 7.35 x10E3/uL | LYMPHOCYTE [7]: 79.44% | MEAN CORPUSCULAR HEMOGLOBIN [7]: 20.4 pg | MEAN CORPUSCULAR HEMOGLOBIN CONCENTRATION [7]: 31.66 G/DL | MEAN CORPUSCULAR VOLUME [7]: 64.4 fL | MONOCYTE [7]: 1.92% | NEUTROPHIL [7]: 16.36% | PLATELET COUNT [7]: 1405.2 x10E3/uL | ABSOLUTE BASOPHIL [8]: 0 CELLS/uL | ABSOLUTE EOSINOPHIL [8]: 0 CELLS/uL | ABSOLUTE LYMPHOCYTE [8]: 5718.33 CELLS/uL | ABSOLUTE MONOCYTE [8]: 84 CELLS/uL | ABSOLUTE SEGMENTED NEUTROPHIL [8]: 664.33 CELLS/uL | BASOPHIL [8]: 0% | EOSINOPHIL [8]: 0% | ERYTHROCYTE COUNT [8]: 5.51 x10E6/uL | HEMATOCRIT [8]: 34.03% | HEMOGLOBIN [8]: 13.47 G/DL | LEUKOCYTE COUNT [8]: 6.47 x10E3/uL | LYMPHOCYTE [8]: 88.33% | MEAN CORPUSCULAR HEMOGLOBIN [8]: 24.47 pg | MEAN CORPUSCULAR HEMOGLOBIN CONCENTRATION [8]: 39.6 G/DL | MEAN CORPUSCULAR VOLUME [8]: 61.87 fL | MONOCYTE [8]: 1.33% | NEUTROPHIL [8]: 10.33% | NUCLEATED RED BLOOD CELLS [8]: 0.33 /100WBC | PLATELET COUNT [8]: 949.67 x10E3/uL | ALANINE AMINOTRANSFERASE [9]: 32.2 u/L | ALBUMIN [9]: 3.8 G/DL | ALKALINE PHOSPHATASE [9]: 308.4 u/L | ASPARTATE AMINOTRANSFERASE [9]: 75.4 u/L | BLOOD UREA NITROGEN [9]: 8.8 mg/dL | CHLORIDE [9]: 109 MEQ/L | CHOLESTEROL [9]: 63.8 mg/dL | CREATINE PHOSPHOKINASE [9]: 287.2 u/L | CREATININE [9]: 0.42 mg/dL | GLUCOSE [9]: 131.8 mg/dL | PHOSPHORUS [9]: 14.88 mg/dL | POTASSIUM [9]: 6.36 MEQ/L | SODIUM [9]: 151.6 MEQ/L | TOTAL BILIRUBIN [9]: 0.18 mg/dL | TOTAL PROTEIN [9]: 6.24 G/DL | ALANINE AMINOTRANSFERASE [10]: 67.33 u/L | ALBUMIN [10]: 4.17 G/DL
